Where only a bound is given, the exact number is not on record here.

These results are taken from patent US9790217B2, “Pyridinyloxy- and phenyloxy-pyrazolyl compounds” (Hoffmann-La Roche Inc., priority 2014, dated 2017).

Test [1] deals with patients with primary aldosteronism. The conditions noted are these: cited from earlier work.
Test [2] relates to rats with experimental heart failure. The note with it: cited from earlier work.
Test [3] deals with rat model of chronic kidney disease. The note with it: rat CKD model, cited from earlier work; for plasma aldosterone: FAD286 4 weeks, spironolactone 4 and 8 weeks of treatment.
The target in test [4] is human CYP11B1 (Homo sapiens (Human), UniProt P15538). Description: G-402 cellular enzyme assay, human CYP11B1 (cortisol release, HTRF). In kind it is cell-based. The note with it: G-402 cells expressing human CYP11B1; 1 μM Deoxycortisol. The source says:
(§1) Herein we identified the use of the G-402 cell line as a host cell to ectopically express (transiently or stably) enzymes of the CYP11 family. Specifically we developed stable G-402 cells expressing ectopically human CYP11B1, human CYP11B2, human CYP11A1, cynmolgus CYP11B1 or cynomolgus CYP11B2 enzyme activity. Importantly the identified cell line G-402 expresses co-factors (adrenodoxin and adrenodoxin reductase) important for the activity of the CYP11 family and no relevant enzyme activity of the CYP11 family (in comparison to H295R cells) was detected in these cells. Therefore the G-402 cell line is uniquely suited as a host cell for the ectopic expression of enzymes from the CYP11 family.
(§2) G-402 cells can be obtained from ATCC (CRL-1440) and were originally derived from a renal leiomyoblastoma.
(§3) The expression plasmids contains the ORF for either human/cyno CYP11B1 or CYP11B2 under the control of a suitable promoter (CMV-promoter) and a suitable resistance marker (neomycin). Using standard techniques the expression plasmid is transfected into G-402 cells and these cells are then selected for expressing the given resistance markers. Individual cell-clones are then selected and assessed for displaying the desired enzymatic activity using 11-Deoxycorticosterone (Cyp11B2) or 11-Deoxycortisol (Cyp11B1) as a substrate.
(§4) G-402 cells expressing CYP11 constructs were established as described above and maintained in McCoy's 5a Medium Modified, ATCC Catalog No. 30-2007 containing 10% FCS and 400 μg/ml G418 (Geneticin) at 37° C. under an atmosphere of 5% CO2/95% air. Cellular enzyme assays were performed in DMEM/F12 medium containing 2.5% charcoal treated FCS and appropriate concentration of substrate (0.3-10 uM 11-Deoxycorticosterone, 11-Deoxycortisol or Corticosterone). For assaying enzymatic activity, cells were plated onto 96 well plates and incubated for 16 h. An aliquot of the supernatant is then transferred and analyzed for the concentration of the expected product (Aldosterone for CYP11B2; Cortisol for CYP11B1). The concentrations of these steroids can be determined using HTRF assays from CisBio analyzing either Aldosterone or Cortisol.
(§5) Inhibition of the release of produced steroids can be used as a measure of the respective enzyme inhibition by test compounds added during the cellular enzyme assay. The dose dependent inhibition of enzymatic activity by a compound is calculated by means of plotting added inhibitor concentrations (x-axes) vs. measured steroid/product level (y-axes). The inhibition is then calculated by fitting the following 4-parameter sigmoidal function (Morgan-Mercer-Flodin (MMF) model) to the raw data points using the least squares method:
(§6) [formula] wherein, A is the maximum y value, B is the EC50 factor determined using XLFit, C is the minimum y value and D is the slope value.
(§7) EC50 values for compounds claimed herein were tested with the G402-based assay system described. Cyp11B2 enzyme activity was tested in presence of 1 μM Deoxycorticosterone and variable amounts of inhibitors; Cyp11B1 enzyme activity was tested in presence of 1 μM Deoxycortisol and variable amounts of inhibitors.

Test [5] concerns the target human CYP11B2 (Homo sapiens (Human), UniProt P19099). Description: G-402 cellular enzyme assay, human CYP11B2 (aldosterone release, HTRF). The class given is cell-based. The note with it: G-402 cells expressing human CYP11B2; 1 μM Deoxycorticosterone.
Excerpt: as §1, §2, §3, §4, §5, §6, §7

Chain of human CYP11B1 (P15538 25-503): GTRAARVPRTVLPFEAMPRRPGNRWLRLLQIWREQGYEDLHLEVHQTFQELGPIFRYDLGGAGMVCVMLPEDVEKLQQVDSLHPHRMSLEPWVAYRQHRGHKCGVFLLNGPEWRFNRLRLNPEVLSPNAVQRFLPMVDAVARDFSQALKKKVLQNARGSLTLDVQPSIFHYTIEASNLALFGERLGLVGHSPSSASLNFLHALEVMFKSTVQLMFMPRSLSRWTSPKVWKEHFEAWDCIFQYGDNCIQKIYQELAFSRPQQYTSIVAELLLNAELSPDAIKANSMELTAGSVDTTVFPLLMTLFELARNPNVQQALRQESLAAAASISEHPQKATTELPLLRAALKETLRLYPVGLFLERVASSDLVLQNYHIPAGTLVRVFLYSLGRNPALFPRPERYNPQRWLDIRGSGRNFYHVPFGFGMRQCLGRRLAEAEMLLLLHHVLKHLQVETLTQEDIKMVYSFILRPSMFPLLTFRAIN
Chain of human CYP11B2 (P19099 25-503): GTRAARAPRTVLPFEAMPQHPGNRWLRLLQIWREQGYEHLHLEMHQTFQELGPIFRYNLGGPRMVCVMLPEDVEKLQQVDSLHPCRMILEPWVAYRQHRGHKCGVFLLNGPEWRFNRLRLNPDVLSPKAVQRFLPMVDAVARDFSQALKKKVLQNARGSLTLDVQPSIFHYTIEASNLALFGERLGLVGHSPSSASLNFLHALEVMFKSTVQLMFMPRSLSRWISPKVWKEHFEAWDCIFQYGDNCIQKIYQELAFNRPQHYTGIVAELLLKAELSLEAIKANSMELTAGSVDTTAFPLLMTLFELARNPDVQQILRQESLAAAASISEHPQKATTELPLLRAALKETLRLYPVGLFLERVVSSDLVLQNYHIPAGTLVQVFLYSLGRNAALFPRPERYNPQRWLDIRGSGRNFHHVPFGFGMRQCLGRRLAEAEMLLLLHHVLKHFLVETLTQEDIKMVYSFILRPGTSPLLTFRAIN

Consider `N#Cc1ccc([C@H]2CCc3cncn32)c(F)c1` [LCI699], for which, in test [1], the blood pressure entry is reported as “mildly decreased” and the hypokalemia result is “corrected”. For the same molecule, the circulating aldosterone levels result in test [1] (oral) is “significantly lower”.
For the molecule `N#Cc1ccc(C2CCCc3cncn32)cc1` (centres unmarked) [FAD286], in test [2], the “blood pressure and cardiovascular function and structure” value is “improved”; the “kidney function and morphology” value was “improve”. Moreover, in test [3], the plasma aldosterone result is listed as “reduced”; the “cardiac and aortic medial hypertrophy” value is listed as “attenuated”; the “renal effects of angiotensin II and high salt (albuminuria, azotemia, renovascular hypertrophy, glomerular injury, PAI-1, osteopontin mRNA, tubulointerstitial fibrosis)” value is “prevented”.
On to `CC(=O)S[C@@H]1CC2=CC(=O)CC[C@]2(C)[C@H]2CC[C@@]3(C)[C@@H](CC[C@@]34CCC(=O)O4)[C@H]12` [spironolactone], for which, in test [3], the plasma aldosterone result is reported as “increased”; the “angiotensin II and salt-stimulated PAI-1 mRNA expression in the aorta and the heart” value is listed as “enhanced”; the “cardiac and aortic medial hypertrophy” value is recorded as “attenuated”; the “renal effects of angiotensin II and high salt (albuminuria, azotemia, renovascular hypertrophy, glomerular injury, PAI-1, osteopontin mRNA, tubulointerstitial fibrosis)” value is “prevented”.
As usually defined, the EC50 is the midpoint of the concentration-response curve. Read a high EC50 as a less potent agent. On to `N#Cc1ccc(Oc2cn[nH]c2-c2cccc(Cn3ccc(=O)cc3)c2)cc1` [Example 72, 4-[[3-[3-[(4-Oxopyridin-1-yl)methyl]phenyl]-1H-pyrazol-4-yl]oxy]benzonitrile], for which the EC50 in test [4] is 19300 nM; in test [5], 1630 nM.
For the molecule `N#Cc1ccc(Oc2cn[nH]c2C2CCCN(C(=O)c3cccnc3)C2)c(F)c1` (racemic) [Example 91, (rac)-3-Fluoro-4-[[3-[1-(pyridine-3-carbonyl)piperidin-3-yl]-1H-pyrazol-4-yl]oxy]benzonitrile], the EC50 in test [4] was found to be 9010 nM; in test [5], 1260 nM.
Turning to `Cc1ncc(-c2[nH]ncc2Oc2ccc(C#N)cc2)s1` [Example 66, 4-[[3-(2-Methyl-1,3-thiazol-5-yl)-1H-pyrazol-4-yl]oxy]benzonitrile], the EC50 in test [4] was 2060 nM; in test [5], 68.5 nM.
As for `N#Cc1ccc(Oc2cn[nH]c2-c2cccc(O)c2F)cc1` [Example 84, 4-[[3-(2-Fluoro-3-hydroxyphenyl)-1H-pyrazol-4-yl]oxy]benzonitrile], the EC50 amounted to 17.3 nM in test [4] and 0.4 nM in test [5].
Regarding `Cn1cc(C(=O)N2CCCC(c3[nH]ncc3Oc3ccc(C#N)cc3F)C2)cn1` (racemic) [Example 89, (rac)-3-Fluoro-4-[[5-[1-(1-methylpyrazole-4-carbonyl)piperidin-3-yl]-1H-pyrazol-4-yl]oxy]benzonitrile], the EC50 was determined as 7760 nM in test [4] and 231 nM in test [5].
For the molecule `FC(F)(F)c1ccc(Oc2cn[nH]c2-c2ccccc2Cl)cc1` [Example 23, 5-(2-Chlorophenyl)-4-[4-(trifluoromethyl)phenoxy]-1H-pyrazole], the EC50 is 723 nM in test [4] and 26.8 nM in test [5].
Take `Clc1ccc(Oc2cn[nH]c2-c2ccccc2Cl)cc1` [Example 6, 4-(4-Chlorophenoxy)-5-(2-chlorophenyl)-1H-pyrazole]: the values for the EC50 in test [4] and in test [5] were 51.8 nM and 2.6 nM, respectively.
As to `CC(=O)N1CCN(C(=O)c2cccc(-c3[nH]ncc3Oc3ccc(C#N)cc3)c2)CC1` [Example 44, 4-[[3-[3-(4-Acetylpiperazine-1-carbonyl)phenyl]-1H-pyrazol-4-yl]oxy]benzonitrile], the EC50 was above 30000 nM in test [4] and 313 nM in test [5].
Turning to `Cn1nncc1COc1ccccc1-c1[nH]ncc1Oc1ccc(C#N)cc1` [Example 81, 4-[[3-[2-[(3-Methyltriazol-4-yl)methoxy]phenyl]-1H-pyrazol-4-yl]oxy]benzonitrile], the EC50 in test [4] is 171 nM; in test [5], 2.5 nM.
Turning to `Cn1cc(COc2cccc(-c3[nH]ncc3Oc3ccc(C#N)cc3)c2)cn1` [Example 56, 4-[[3-[3-[(1-Methylpyrazol-4-yl)methoxy]phenyl]-1H-pyrazol-4-yl]oxy]benzonitrile], the figures for the EC50 in test [4] and in test [5] were 93.6 nM and 9.5 nM, respectively.
In the case of `Cc1cccc(Oc2c[nH]nc2-c2ccc(Cl)cc2Cl)n1` [Example 22, 2-[[3-(2,4-Dichlorophenyl)-1H-pyrazol-4-yl]oxy]-6-methylpyridine], the figures for the EC50 in test [4] and in test [5] were 611 nM and 42.1 nM, respectively.
In the case of `COc1ccc(Cl)cc1-c1[nH]ncc1Oc1ccc(Cl)cc1` [Example 10, 3-(5-Chloro-2-methoxyphenyl)-4-(4-chlorophenoxy)-1H-pyrazole], the EC50 in test [4] turned out to be 835 nM; in test [5] it was 60.8 nM.
Take `Fc1cccc(-c2[nH]ncc2Oc2ccc(Cl)cc2)c1F` [Example 1, 4-(4-Chlorophenoxy)-5-(2,3-difluorophenyl)-1H-pyrazole]: the figures for the EC50 in test [4] and in test [5] were 1030 nM and 29.8 nM, respectively.
For the molecule `CCOC(=O)c1ccccc1-c1[nH]ncc1Oc1ccc(C#N)cc1` [Example 39, Ethyl 2-[4-(4-cyanophenoxy)-1H-pyrazol-3-yl]benzoate], the values for the EC50 in test [4] and in test [5] were 1160 nM and 34.2 nM, respectively.
On to `CS(=O)(=O)c1ccc(-c2[nH]ncc2Oc2ccc(C#N)cc2)c(Cl)c1` [Example 43, 4-[[5-(2-Chloro-4-methylsulfonylphenyl)-1H-pyrazol-4-yl]oxy]benzonitrile], for which the EC50 in test [4] was determined as 558 nM; in test [5], 41.6 nM.
For `Fc1ccc(-c2[nH]ncc2Oc2ccc(Cl)cc2)c(F)c1` [Example 15, 4-(4-Chlorophenoxy)-5-(2,4-difluorophenyl)-1H-pyrazole] the same measures were 159 nM and 18.6 nM.
As to `N#Cc1ccc(Oc2cn[nH]c2-c2ccccc2OCc2ccncc2)cc1` [Example 76, 4-[[3-[2-(Pyridin-4-ylmethoxy)phenyl]-1H-pyrazol-4-yl]oxy]benzonitrile], the EC50 in test [4] amounted to 6.8 nM; in test [5], 0.2 nM.
For `N#Cc1ccc(Oc2cn[nH]c2-c2ccccc2OCc2cccnc2)cc1` [Example 77, 4-[[3-[2-(Pyridin-3-ylmethoxy)phenyl]-1H-pyrazol-4-yl]oxy]benzonitrile] the same measures were 11.4 nM and 0.3 nM.
Regarding `N#Cc1ccc(Oc2cn[nH]c2-c2cccc(Cl)c2)cc1` [Example 32, 4-[[5-(3-Chlorophenyl)-1H-pyrazol-4-yl]oxy]benzonitrile], the EC50 in test [4] was found to be 542 nM; in test [5] it was 45.8 nM.
For `N#Cc1ccc(Oc2cn[nH]c2-c2cccc(C[n+]3cccc([O-])c3)c2)cc1` [Example 71, 1-[[3-[4-(4-Cyanophenoxy)-1H-pyrazol-3-yl]phenyl]methyl]pyridin-1-ium-3-olate] the same measures were 5880 nM and 656 nM.
Turning to `COC(=O)c1cccc(-c2[nH]ncc2Oc2ccc(C#N)cc2)c1` [Example 33, Methyl 3-[4-(4-cyanophenoxy)-1H-pyrazol-3-yl]benzoate], the EC50 in test [4] was determined as 31.3 nM; in test [5] it was 17.5 nM.
For the molecule `Fc1cccc(Oc2cn[nH]c2-c2ccc(Cl)cc2Cl)n1` [Example 21, 2-[[5-(2,4-Dichlorophenyl)-1H-pyrazol-4-yl]oxy]-6-fluoropyridine], the EC50 amounted to 841 nM in test [4] and 101 nM in test [5].
`CS(=O)(=O)c1ccc(-c2[nH]ncc2Oc2ccc(Cl)cc2)cc1` [Example 12, 4-(4-Chlorophenoxy)-5-(4-methylsulfonylphenyl)-1H-pyrazole]: the EC50 is 600 nM in test [4] and 26.4 nM in test [5].
In the same order, the values of `COc1ccccc1CCc1[nH]ncc1Oc1ccc(C#N)cc1` [Example 60, 4-[[3-[2-(2-Methoxyphenyl)ethyl]-1H-pyrazol-4-yl]oxy]benzonitrile] are 1000 nM and 54 nM.
With `Cn1cc(C(=O)N2CCN(Cc3[nH]ncc3Oc3ccc(C#N)cc3)CC2)cn1` [Example 88, 4-[[5-[[4-(1-Methylpyrazole-4-carbonyl)piperazin-1-yl]methyl]-1H-pyrazol-4-yl]oxy]benzonitrile], the figures for the EC50 in test [4] and in test [5] were 25900 nM and 147 nM, respectively.
